Results from paper PMC9295122, “Sialic Acid Derivatives Inhibit SiaT Transporters and Delay Bacterial Growth” (ACS Chemical Biology, 2022).
Like-named read-outs stand apart in the source and are kept apart here.

Tests used:
PmSiaT = biological target: T1, PmSiaT (Proteus mirabilis, UniProt B4EZY7); assay: nanoDSF thermal shift assay, PmSiaT; format: binding; settings: for Average 1 / Average 2 / Average 3 / Replicate 1 / Replicate 2 / Replicate 3: PmSiaT Tm; for Average 1: average of experiment 1; for Average 2: average of experiment 2; for Average 3: average of experiment 3; for Replicate 1: experiment 1, second capillary; for Replicate 1 / Replicate 2 / Replicate 3 / Tm 1 / Tm2 / Tm 3 / Tm average overall / ΔTm at 1250 µM: 1.25 mM; for Replicate 2: experiment 2, second capillary; for Replicate 3: experiment 3, second capillary; for Tm 1 / ΔTm / Tm2 / Tm 3 / Tm average overall / ΔTm at 1250 µM: PmSiaT; for Tm 1: experiment 1, first capillary; for Tm2: experiment 2, first capillary; for Tm 3: experiment 3, first capillary; for Tm average overall / ΔTm at 1250 µM: three experiments; for ΔTm at 1250 µM: vs Neu5Ac, read-out: ΔTm average overall
T1 construct: made in house
T1 sequence (B4EZY7 1-496): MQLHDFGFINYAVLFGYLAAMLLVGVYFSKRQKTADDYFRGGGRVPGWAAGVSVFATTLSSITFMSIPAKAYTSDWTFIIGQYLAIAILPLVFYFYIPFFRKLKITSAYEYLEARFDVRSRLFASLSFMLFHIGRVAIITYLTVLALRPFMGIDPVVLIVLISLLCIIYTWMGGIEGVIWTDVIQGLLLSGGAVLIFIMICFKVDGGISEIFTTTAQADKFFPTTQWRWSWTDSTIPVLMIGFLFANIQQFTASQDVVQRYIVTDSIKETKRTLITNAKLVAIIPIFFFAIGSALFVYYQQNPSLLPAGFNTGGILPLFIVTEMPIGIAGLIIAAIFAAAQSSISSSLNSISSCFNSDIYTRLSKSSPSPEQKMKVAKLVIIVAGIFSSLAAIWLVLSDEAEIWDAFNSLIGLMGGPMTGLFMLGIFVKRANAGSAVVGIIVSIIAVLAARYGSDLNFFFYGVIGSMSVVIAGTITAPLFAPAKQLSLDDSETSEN
Experimental: (§1) Nano-differential scanning fluorimetry (nanoDSF) is a high-throughput method that relies on the thermal stabilization of the folded protein state by a bound ligand.[33]
(§2) The melting points of protein–inhibitor complexes were measured on a Prometheus NT.48 instrument from NanoTemper Technologies. Solutions containing the protein at 2 μM in phosphate buffered saline with 0.0174% (w/v) dodecylmaltoside (DDM) and the ligand at 1.25 mM were loaded onto standard capillaries by NanoTemper. The temperature was increased from 25 to 95 °C at a ramp rate of 1 °C/min. The fluorescence was recorded at 330 and 350 nm and as a ratio of the two wavelengths.
(§3) The intensity ratio and its first derivative were calculated using manufacturer’s software (PR.ThermControl, version 2.1.2).
(§4) The melting temperatures have been measured in 3 separate experiments. In each experiment, two capillaries were included per compound, having therefore 2 technical replicates per experiment. In the table all data is presented. Tm1 and Replicate 1 represent the two replicates of the first experiment. Average 1 is the average between Tm 1 and Replicate 1. ΔTm 1 is the thermal shift when compared to the Tm of Neu5Ac. This is calculated from Average 1. The ΔTm presented in the article are the ΔTm average overall, which represent the overall average of the averages from the three experiments. The standard deviation (SD) is calculated from the […]

SaSiaT = SaSiaT (Staphylococcus aureus, UniProt A0A0H2XJ46); assay: nanoDSF thermal shift assay, SaSiaT; format: binding; settings: for Average 1 / Average 2 / Average 3 / Replicate 1 / Replicate 2 / Replicate 3: SaSiaT Tm; for Average 1: average of experiment 1; for Average 2: average of experiment 2; for Average 3: average of experiment 3; for Replicate 1: experiment 1, second capillary; for Replicate 1 / Replicate 2 / Replicate 3 / Tm 1 / Tm2 / Tm 3 / Overall average (Tm): 1.25 mM; for Replicate 2: experiment 2, second capillary; for Replicate 3: experiment 3, second capillary; for Tm 1 / Tm2 / Tm 3 / Overall average (Tm): SaSiaT; for Tm 1: experiment 1, first capillary; for Tm2: experiment 2, first capillary; for Tm 3: experiment 3, first capillary; for Overall average (Tm): three experiments
Experimental: as §1, §2, §3, §4

[1] = experiment 1, vs Neu5Ac, read-out: ΔTm 1
[2] = experiment 2, vs Neu5Ac, read-out: ΔTm 2
[3] = experiment 3, vs Neu5Ac, read-out: ΔTm 3

Chain of SaSiaT (A0A0H2XJ46 entry or part of it): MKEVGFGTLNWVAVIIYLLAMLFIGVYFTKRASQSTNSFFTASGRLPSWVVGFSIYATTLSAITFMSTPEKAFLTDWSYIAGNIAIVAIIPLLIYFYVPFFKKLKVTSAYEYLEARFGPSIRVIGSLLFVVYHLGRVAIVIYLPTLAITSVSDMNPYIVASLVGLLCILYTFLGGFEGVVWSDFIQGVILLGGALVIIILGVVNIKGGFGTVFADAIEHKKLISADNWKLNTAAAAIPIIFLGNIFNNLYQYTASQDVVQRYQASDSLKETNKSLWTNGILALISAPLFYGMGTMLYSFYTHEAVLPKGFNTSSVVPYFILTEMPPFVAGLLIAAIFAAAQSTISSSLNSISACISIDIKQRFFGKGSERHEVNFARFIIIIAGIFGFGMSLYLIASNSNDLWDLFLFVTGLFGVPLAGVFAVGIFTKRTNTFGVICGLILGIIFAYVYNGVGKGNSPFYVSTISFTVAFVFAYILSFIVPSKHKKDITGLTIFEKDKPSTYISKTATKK

| Structure (SMILES) | Average 2 (PmSiaT) | Average 3 (PmSiaT) | Replicate 1 (PmSiaT) | Replicate 2 (PmSiaT) | Replicate 3 (PmSiaT) | Tm 1 (PmSiaT) | ΔTm (PmSiaT; [1]) | Tm2 (PmSiaT) | ΔTm (PmSiaT; [2]) | Tm 3 (PmSiaT) | ΔTm (PmSiaT; [3]) | Tm average overall (PmSiaT) | ΔTm at 1250 µM (PmSiaT) | Average 1 (SaSiaT) | Average 2 (SaSiaT) | Average 3 (SaSiaT) | Replicate 1 (SaSiaT) | Replicate 2 (SaSiaT) | Replicate 3 (SaSiaT) | Tm 1 (SaSiaT) | also measured |
| --- | --- | --- | --- | --- | --- | --- | --- | --- | --- | --- | --- | --- | --- | --- | --- | --- | --- | --- | --- | --- | --- |
| CC(=O)NC1C(OCc2ccc(F)cc2)CC(O)(C(=O)O)OC1C(O)C(O)CO (centres unmarked) [Compound 3b] | 53.2 °C | 53.1 °C | 53.4 °C | 53.4 °C | 53.2 °C | 53.1 °C | 4.2 °C | 53.1 °C | 4 °C | 53.0 °C | 3.8 °C | 53.2 °C | 4 °C | 56.4 °C | 56.2 °C | 56.7 °C | 56.4 °C | 56.2 °C | 56.4 °C | 56.4 °C | Average 1 (PmSiaT): 53.2 °C; Tm2 (SaSiaT): 56.3 °C; Tm 3 (SaSiaT): 56.9 °C; Overall average (Tm) (SaSiaT): 56.4 °C |
| CC(=O)NC1C(OCc2ccc(Br)cc2)CC(O)(C(=O)O)OC1C(O)C(O)CO (centres unmarked) [Compound 3c] | 55.9 °C | 56.0 °C | 56.7 °C | 56.0 °C | 56.1 °C | 56.6 °C | 7.7 °C | 55.8 °C | 6.7 °C | 56.0 °C | 6.7 °C | 56.2 °C | 7 °C | 54.2 °C | 53.5 °C | 54.5 °C | 54.4 °C | 53.5 °C | 54.4 °C | 54.1 °C | Average 1 (PmSiaT): 56.7 °C; Tm2 (SaSiaT): 53.5 °C; Tm 3 (SaSiaT): 54.5 °C; Overall average (Tm) (SaSiaT): 54.1 °C |
| CC(C)C(=O)NC1C(O)CC(O)(C(=O)O)OC1C(O)C(O)CO (centres unmarked) [Compound 6b] | 47.1 °C | 47.0 °C | 47.1 °C | 47.0 °C | 47.0 °C | 47.1 °C | -1.9 °C | 47.2 °C | -2.1 °C | 47.0 °C | -2.3 °C | 47.1 °C | -2.1 °C | 45.1 °C | 44.6 °C | 45.2 °C | 45.0 °C | 44.6 °C | 45.1 °C | 45.1 °C | Tm2 (SaSiaT): 44.6 °C; Tm 3 (SaSiaT): 45.3 °C; Overall average (Tm) (SaSiaT): 45.0 °C |
| CC(=O)NC1C(OCc2ccc(C#N)cc2)CC(O)(C(=O)O)OC1C(O)C(O)CO (centres unmarked) [Compound 3d] | 53.7 °C | 54.1 °C | 55.4 °C | 53.8 °C | 54.1 °C | 55.2 °C | 6.3 °C | 53.6 °C | 4.5 °C | 54.2 °C | 4.8 °C | 54.4 °C | 5.2 °C | 54.4 °C | 53.6 °C | 53.0 °C | 54.3 °C | 53.6 °C | 53.9 °C | 54.4 °C | Average 1 (PmSiaT): 55.3 °C; Tm2 (SaSiaT): 53.6 °C; Tm 3 (SaSiaT): 52.0 °C; Overall average (Tm) (SaSiaT): 53.7 °C |
| CC(=O)NC1C(O)CC(O)(C(=O)O)OC1C(O)C(O)CCl (centres unmarked) [Compound 8c] | 47.9 °C | 48.0 °C | 47.8 °C | 47.9 °C | 48.1 °C | 47.6 °C | -1.3 °C | 47.9 °C | -1.3 °C | 47.9 °C | -1.3 °C | 47.9 °C | -1.3 °C | 48.9 °C | 49.6 °C | 49.7 °C | 48.9 °C | 49.6 °C | 49.6 °C | 48.9 °C | Average 1 (PmSiaT): 47.7 °C; Tm2 (SaSiaT): 49.5 °C; Tm 3 (SaSiaT): 49.8 °C; Overall average (Tm) (SaSiaT): 49.4 °C |
| CC(=O)NC1C(O)CC(O)(C(=O)O)OC1C(O)C(O)CBr (centres unmarked) [Compound 8d] | 47.2 °C | 47.2 °C | 47.4 °C | 47.1 °C | 47.0 °C | 47.2 °C | -1.7 °C | 47.3 °C | -2 °C | 47.4 °C | -2.1 °C | 47.2 °C | -1.9 °C | 49.9 °C | 49.9 °C | 51.8 °C | 49.8 °C | 49.9 °C | 52.8 °C | 49.9 °C | Average 1 (PmSiaT): 47.3 °C; Tm2 (SaSiaT): 49.9 °C; Tm 3 (SaSiaT): 50.8 °C; Overall average (Tm) (SaSiaT): 50.5 °C |
| CSCC(O)C(O)C1OC(O)(C(=O)O)CC(O)C1NC(C)=O (centres unmarked) [Compound 8a] | 46.2 °C | 46.1 °C | 45.8 °C | 46.0 °C | 46.0 °C | 46.1 °C | -3.1 °C | 46.3 °C | -3 °C | 46.2 °C | -3.2 °C | 46.1 °C | -3.1 °C | 51.0 °C | 49.2 °C | 50.8 °C | 50.9 °C | 49.2 °C | 50.4 °C | 51.0 °C | Average 1 (PmSiaT): 45.9 °C; Tm2 (SaSiaT): 49.3 °C; Tm 3 (SaSiaT): 51.3 °C; Overall average (Tm) (SaSiaT): 50.3 °C |
| O=C(CCl)NC1C(O)CC(O)(C(=O)O)OC1C(O)C(O)CO (centres unmarked) [Compound 6g] | 49.9 °C | 49.5 °C | 49.7 °C | 49.9 °C | 49.5 °C | 49.9 °C | 0.8 °C | 49.9 °C | 0.7 °C | 49.5 °C | 0.2 °C | 49.7 °C | 0.6 °C | 49.0 °C | 49.2 °C | 49.3 °C | 49.0 °C | 49.0 °C | 48.9 °C | 49.0 °C | Average 1 (PmSiaT): 49.8 °C; Tm2 (SaSiaT): 49.4 °C; Tm 3 (SaSiaT): 49.7 °C; Overall average (Tm) (SaSiaT): 49.2 °C |
